How the values were obtained:
Assay type in all cases: in vivo
[1] = tested on: Plutella xylostella (diamond back moth); test: Example B3: activity against Plutella xylostella, artificial diet; conditions: 120 h, application rate of 200 ppm, L2 larvae, 5 days after infestation, read-out: effect in at least one of the two categories (mortality or growth inhibition)
Description: Example B3: Activity Against Plutella xylostella (Diamond Back Moth)
24-well microtiter plates with artificial diet were treated with aqueous test solutions prepared from 10,000 ppm DMSO stock solutions by pipetting. After drying, the plates were infested with L2 larvae (10 to 15 per well). The samples were assessed for mortality and growth inhibition in comparison to untreated samples 5 days after infestation. The following compound gave an effect of at least 80% in at least one of the two categories (mortality or growth inhibition) at an application rate of 200 ppm: P1, P4, P5, P6, P8, P9, P10, P11, P12 and P13.

[2] = tested on: Diabrotica balteata (corn root worm); test: Example B4: activity against Diabrotica balteata, maize sprouts spray; conditions: 96 h, application rate of 200 ppm, L2 larvae, 4 days after infestation, read-out: effect in at least one of the two categories (mortality or growth inhibition)
Description: Example B4: Activity Against Diabrotica balteata (Corn Root Worm)
Maize sprouts, placed on an agar layer in 24-well microtiter plates were treated with aqueous test solutions prepared from 10,000 ppm DMSO stock solutions by spraying. After drying, the plates were infested with L2 larvae (6 to 10 per well). The samples were assessed for mortality and growth inhibition in comparison to untreated samples 4 days after infestation. The following compounds gave an effect of at least 80% in at least one of the two categories (mortality or growth inhibition) at an application rate of 200 ppm: P1, P4, P5, P6, P8, P9, P10, P11, P12 and P13.

[3] = tested on: Myzus persicae (green peach aphid); test: Example B5: activity against Myzus persicae, sunflower leaf disc spray; conditions: foliar, 144 h, application rate of 200 ppm, sunflower leaf discs, mixed ages, 6 days after infestation
Description: Example B5: Activity Against Myzus persicae (Green Peach Aphid)
Sunflower leaf discs were placed on agar in a 24-well microtiter plate and sprayed with aqueous test solutions prepared from 10,000 ppm DMSO stock solutions. After drying, the leaf discs were infested with an aphid population of mixed ages. The samples were assessed for mortality 6 days after infestation.

[4] = tested on: Spodoptera littoralis (Egyptian cotton leaf worm); test: Example B1: activity against Spodoptera littoralis, cotton leaf disc spray; conditions: foliar, 72 h, application rate of 200 ppm, cotton leaf discs, L1 larvae, 3 days after infestation, read-out: control in at least one of the three categories (mortality, anti-feedancy or growth inhibition)
Description: Example B1: Activity Against Spodoptera littoralis (Egyptian Cotton Leaf Worm)
Cotton leaf discs were placed on agar in 24-well microtiter plates and sprayed with aqueous test solutions prepared from 10,000 ppm DMSO stock solutions. After drying the leaf discs were infested with five L1 larvae. The samples were assessed for mortality, anti-feedant effect, and growth inhibition in comparison to untreated samples 3 days after infestation. Control of Spodoptera littoralis by a test sample is when at least one of mortality, anti-feedant effect, and growth inhibition is higher than the untreated sample. The following compound gave an effect of at least 80% control in at least one of the three categories (mortality, anti-feedancy or growth inhibition) at an application rate of 200 ppm: P1, P4, P5, P8, P9, P10, P12 and P13.

[5] = tested on: Myzus persicae (green peach aphid); test: Example B9: activity against Myzus persicae, roots of pea seedlings in test solution; conditions: 144 h, test rate of 24 ppm, 6 days
Description: Example B9: Activity Against Myzus persicae (Green Peach Aphid)
Roots of pea seedlings infested with an aphid population of mixed ages were placed directly into aqueous test solutions prepared from 10,000 DMSO stock solutions. The samples were assessed for mortality 6 days after placing seedlings into test solutions.

[6] = tested on: Spodoptera littoralis (Egyptian cotton leaf worm); test: Example B2: activity against Spodoptera littoralis, systemic via lettuce on agar; conditions: 144 h, application rate of 12.5 ppm, Spodoptera eggs, 6 days after infestation, read-out: control in at least one of the three categories (mortality, anti-feedancy or growth inhibition)
Description: Example B2: Activity Against Spodoptera Littoralis (Egyptian Cotton Leaf Worm)
Test compounds were applied by pipette from 10,000 ppm DMSO stock solutions into 24-well plates and mixed with agar. Lettuce seeds were placed on the agar and the multi well plate was closed by another plate which contains also agar. After 7 days the roots have absorbed the compound and the lettuce has grown into the lid plate. The lettuce leafs were now cut off into the lid plate. Spodoptera eggs were pipetted through a plastic stencil on a humid gel blotting paper and the plate closed with it. The samples were assessed for mortality, anti-feedant effect and growth inhibition in comparison to untreated samples 6 days after infestation. The following compound gave an effect of at least 80% control in at least one of the three categories (mortality, anti-feedancy or growth inhibition) at an application rate of 12.5 ppm: P1, P4, P9, P12 and P13.

[7] = tested on: Euschistus heros (neotropical brown stink bug); test: Example B8: activity against Euschistus heros, soybean leaf spray; conditions: 120 h, application rate of 200 ppm, N-2 nymphs, 5 days after infestation
Description: Example B8: Activity Against Euschistus heros (Neotropical Brown Stink Bug)
Soybean leaf on agar in 24-well microtiter plates were sprayed with aqueous test solutions prepared from 10,000 ppm DMSO stock solutions. After drying the leaf were infested with N-2 nymphs. The samples were assessed for mortality 5 days after infestation.

[8] = tested on: Frankliniella occidentalis (western flower thrips); test: Example B10: activity against Frankliniella occidentalis, sunflower leaf disc spray; conditions: foliar, 168 h, application rate of 200 ppm, sunflower leaf discs, mixed ages, 7 days after infestation
Description: Example B10: Activity Against Frankliniella occidentalis (Western Flower Thrips)
Sunflower leaf discs were placed on agar in 24-well microtiter plates and sprayed with aqueous test solutions prepared from 10,000 DMSO stock solutions. After drying the leaf discs were infested with a Frankliniella population of mixed ages. The samples were assessed for mortality 7 days after infestation.

[9] = tested on: Bemisia tabaci (cotton white fly); test: Example B7: activity against Bemisia tabaci, cotton leaf disc spray; conditions: foliar, 144 h, application rate of 200 ppm, cotton leaf discs, adult white flies, 6 days after incubation
Description: Example B7: Activity Against Bemisia tabaci (Cotton White Fly)
Cotton leaf discs were placed on agar in 24-well microtiter plates and sprayed with aqueous test solutions prepared from 10,000 ppm DMSO stock solutions. After drying the leaf discs were infested with adult white flies. The samples were checked for mortality 6 days after incubation.

[10] = tested on: Thrips tabaci (onion thrips); test: Example B11: activity against Thrips tabaci, sunflower leaf disc spray; conditions: foliar, 144 h, application rate of 200 ppm, sunflower leaf discs, mixed ages, 6 days after infestation
Description: Example B11: Activity Against Thrips tabaci (Onion Thrips)
Sunflower leaf discs were placed on agar in 24-well microtiter plates and sprayed with aqueous test solutions prepared from 10,000 ppm DMSO stock solutions. After drying the leaf discs were infested with a Thrips population of mixed ages. The samples were assessed for mortality 6 days after infestation.

[11] = tested on: Myzus persicae (green peach aphid); test: Example B6: activity against Myzus persicae, sucrose solution through Parafilm; conditions: 120 h, test rate of 12 ppm, 5 days after infestation
Description: Example B6: Activity Against Myzus persicae (Green Peach Aphid)
Test compounds from 10,000 ppm DMSO stock solutions were applied by pipette into 24-well microtiter plates and mixed with sucrose solution. The plates were closed with a stretched Parafilm. A plastic stencil with 24 holes was placed onto the plate and infested pea seedlings were placed directly on the Parafilm. The infested plate was closed with a gel blotting paper and another plastic stencil and then turned upside down. The samples were assessed for mortality 5 days after infestation.

CCS(=O)(=O)c1cc(C2(C#N)CC2)cnc1-c1nc2cc(C(F)(F)F)cnc2n1C [Compound P9, 1-[5-ethylsulfonyl-6-[3-methyl-6-(trifluoromethyl)imidazo[4,5-b]pyridin-2-yl]-3-pyridyl]cyclopropanecarbonitrile]
≥ 80%: percent effect (mortality or growth inhibition) at 200 ppm [1] | percent effect (mortality or growth inhibition) at 200 ppm [2] | mortality at 200 ppm [3] | percent control (mortality, anti-feedancy or growth inhibition) at 200 ppm [4] | mortality at 24 ppm [5] | control at 12.5 ppm [6] | mortality at 200 ppm [7] | mortality at 200 ppm [8] | mortality at 200 ppm [9] | mortality at 200 ppm [10]

CCSc1cc(C2CC2)cnc1-c1nc2cc(C(F)(F)F)cnc2n1C [Compound P1, 2-(5-cyclopropyl-3-ethylsulfanyl-2-pyridyl)-3-methyl-6-(trifluoromethyl)imidazo[4,5-b]pyridine]
≥ 80%: percent effect (mortality or growth inhibition) at 200 ppm [1] | percent effect (mortality or growth inhibition) at 200 ppm [2] | mortality at 200 ppm [3] | percent control (mortality, anti-feedancy or growth inhibition) at 200 ppm [4] | control at 12.5 ppm [6] | mortality at 200 ppm [7] | mortality at 12 ppm [11]

Source: patent US11072608B2, “Pesticidally active heterocyclic derivatives with sulphur containing substituents” (SYNGENTA PARTICIPATIONS AG, priority 2014, dated 2021)
